Assay: Patch irritancy test on test subject's skin
Conditions: control diluted to 0.2 percent of the original volume into deionized water

With CCCCCCCCCCCCOS(=O)(=O)[O-].[Na+] [Sodium Lauryl Sulfate] the Classification was “Experimental Cumulative” and the “Irritancy Score” value was 14918.5.

— patent US20100261630A1, “ANTIMICROBIAL HAND WASH FORMULATIONS” (priority 2006, published 2010)
